Reference: patent US6358491B1, “Somatostatin analogs” (Berlex Laboratories, Inc., priority 1999, dated 2002)
Like-named read-outs stand apart in the source and are kept apart here. *1 amine or outer side, *2 acyl side, *3 side chain or, on linkers, in order; H or OH if unused. Where a SMILES comes first, the peptide text is derived from it. Bridges are numbered along the chain shown (N, C = ends). Roman numbers before positions name the chains, in order. [ ]: non-standard residue; d: D form. ξ: configuration not given here. Phe(4-NH2) = Nc1ccc(C[C@H](N)C(=O)O)cc1; NMehCys = CN[C@@H](CCS)C(=O)O; Thr(3ξ) = CC(O)[C@H](N)C(=O)O; Dap = NC[C@H](N)C(=O)O; X1 = O=C(C[*:1])[*:2]

How the values were obtained:
SSTRs, NCI-H69 membranes = experiment: [125I]SST-14 binding to NCI-H69 cell membranes (SSTR affinity); design: species or system human; details: inhibition of [125I]SST-14 binding, two-site fit
Protocol: (§1) [^125I-Tyr^11] somatostatin-14 ([^125I]SST-14) was obtained from Amersham. Unlabeled somatostatin-14 was purchased either from BACHEM (Torrance, Calif.) or from Sigma Chemical Co. (St. Louis, Mo.). Protease inhibitors, leupeptin, aprotinin, bacitracin, and benzamidine and other reagents were obtained from Sigma. Protease inhibitors were prepared in dimethylsulfoxide (DMSO) at a concentration 500×higher than the final assay concentration. The prepared protease solution was stored at −20° C. and diluted with the buffer solution before use.
Membrane preparations used in these studies were prepared from two commercially available tumor cell lines, the human small cell lung cancer cell line, NCI-H69, and the rat pancreatic tumor cell line, AR42J, obtained from American Type Culture Collection (ATCC) (Manassas, Va.). NCI-H69 cells were maintained by serial passage in RPMI 1640 with 10% fetal calf serum. AR42J cells were maintained in F-12K medium containing 20% fetal calf serum. Cells in culture flasks were incubated at 37° C. with 5% CO2 in air atmosphere following the recommendations of the “Product Sheet” from ATCC.
Cultured cells were first detached from plates with phosphate-buffered saline, pH 7.4, containing 2 mM EDTA, and centrifuged at 1,500×g for 10 min. Cells were then resuspended in 5-10 mL of the homogenization buffer (1 mM sodium bicarbonate, pH 7.4, 1 mM EDTA, 1 mM EGTA, 2.5 mM DTT, 5 μg/mL leupeptin, 5 μg/mL aprotinin, 100 μg/mL bacitracin, 100 μg/mL benzamidine) for 10 min on ice. The cells were lysed for 30 sec twice in a polytron with a setting at 5. The lysate was centrifuged at 1,000×g for 10 min at 4° C. The supernatant was centrifuged at 40,000×g for 20 min at 4° C. This step was repeated twice with the homogenization buffer in the absence of protease inhibitors. The pellet was then resuspended at 1-5 mg membrane protein/mL in 25 mM Tris, pH 7.4 without the addition of protease inhibitors and the membranes were stored at −80° C. before use. Membrane protein concentration was determined spectroscopically using the bicinchonic acid (BCA) protein assay kit (Pierce Chemical Inc. (Rockford, Ill.).
All [^125I]SST-14 binding assays were performed in 0.5 mL binding buffer containing 50 mM HEPES, pH 7.5, 10 mM MgCl2, 0.25% BSA (w/v) containing protease inhibitors (same as above) and incubated at 37° C. for 45 minutes. After incubation, samples were kept at 4° C. and rapidly filtered under vacuum through a Whatman GF/B glass fiber filter with a 12-well harvester (Skatron Instruments Inc., Sterling, Va.). The filter was washed for 9 seconds with cold 50 mM HEPES, pH 7.5, 10 mM MgCl2, 0.25% BSA (w/v). Thirty-five […] of [^125I]SST-14 from Amersham was used in each tube. Peptides were solubilized in DMSO and serially diluted with DMSO. Five μL of peptide in DMSO was used to obtain the final concentration. DMSO (5 μL) was added to the tube without the addition of any peptide or unlabeled SST-14, so that each tube contained 1% DMSO. Non-specific binding was defined as the binding of [^125I]SST-14 which was not displaceable with an excess of unlabeled SST-14 at a concentration of 1×10^−6 M. The bound [^125I]SST-14 without or with excess unlabeled SST-14 (1×10^−6 M) was defined as total binding and nonspecific binding, respectively. The difference between total and nonspecific binding was defined as specific binding. The percent inhibition (% Inh) by peptide was expressed as
% Inh=(total binding−total binding in the presence of peptide)/specific binding×100%
Inclusion of protease inhibitors in homogenizing medium as well as assay buffer is essential to maintain the integrity of both [^125I]SST-14 and somatostatin analogs for the receptor binding assay and to obtain optimal specific binding. The highest specific binding was observed when MgCl2 (10 mM) was included. Membranes were finally resuspended in a sodium-free medium and receptor binding assays were performed in the absence of sodium ions. […]

AR42J tumor xenografts = experiment: Biodistribution of 99mTc-labeled compounds in nude mice with AR42J tumor xenografts; format: in vivo; details: 99mTc-labeled compound, 90 minutes post-injection; for TUMOR: i.v.; for T:B: tumor to blood ratio; for T:M: tumor to muscle ratio
Protocol: (§2) Rat pancreatic AR42J cells (ATCC, Rockville, Md., USA) were grown in Modified Ham's F12K medium (Cat. No. N-3520, Sigma, St. Louis, Mo., USA) containing 20% fetal bovine serum (FCS) (Cat. No. 1224, Lot No. 9702058, Sigma, St. Louis, Mo., USA) under sterile conditions in 95% humidity and 5% CO2. At a density of approximately 10×10^6 cells per T150 flask, the cells were harvested with trypsin and collected by centrifugation at 2400 rpm (800×g) for 15 minutes in a benchtop centrifuge (IEC Centra-8 tabletop centrifuge, International Equipment Company, Needham, Mass., USA). The cells were resuspended in medium containing 20% FCS for implantation.
(§3) Six female nude mice (CrlLNU/NU-nuBR, 6-8 weeks old) were injected subcutaneously into the right flank with tumor cells (2×10^7/100 μL) in 20% matrigel (Collaborative Biomedical Products, Chicago, Ill., USA). Fourteen days after inoculation tumors were visible in all animals. Three weeks after inoculation, tumors were aseptically dissected, minced and implanted into 60 nude mice using a trochar. The tumor xenografts from the second passage were used for biodistribution studies.
(§4) A dose of approximately 50-100 μCi ^99mTc-labeled compound/mouse was injected intravenously in a total volume of 100 μL. Mice were sacrificed 90 minutes post-injection by decapitation and the trunk blood was collected. Tumors (1 to 3 per mouse), liver, gastrointestinal tract, kidneys, and samples of muscle from both legs (quadriceps femoralis) were collected, weighed, and counted for radioactivity.

[1] = tested on: SSTRs, AR42J cell membranes; experiment: [125I]SST-14 binding to AR42J cell membranes (SSTR affinity); design: species or system rat; details: inhibition of [125I]SST-14 binding; two-site fit; read-out: IC50 Values for AR42J Cell Membranes (first value)
Protocol: as §1
Membrane preparations used in these studies were prepared from two commercially available tumor cell lines, the human small cell lung cancer cell line, NCI-H69, and the rat pancreatic tumor cell line, AR42J, obtained from American Type Culture Collection (ATCC) (Manassas, Va.). […]
Cultured cells were first detached from plates with phosphate-buffered saline, pH 7.4, containing 2 mM EDTA, and centrifuged at 1,500×g for 10 min. […] Membrane protein concentration was determined spectroscopically using the bicinchonic acid (BCA) protein assay kit (Pierce Chemical Inc. (Rockford, Ill.).
All [^125I]SST-14 binding assays were performed in 0.5 mL binding buffer containing 50 mM HEPES, pH 7.5, 10 mM MgCl2, 0.25% BSA (w/v) containing protease inhibitors (same as above) and incubated at 37° C. for 45 minutes. […] The percent inhibition (% Inh) by peptide was expressed as […]

[2] = Biodistribution of 99mTc-labeled compounds in nude mice with AR42J tumor xenografts; format: in vivo; details: nude, mouse, iv, total radioactivity, 99mTc-labeled compound, 90 minutes post-injection; for tissue uptake dose at 1.5 h: i.v.
Protocol: as §2, §3, §4

[3] = patient, four cycles of treatment; cited from earlier work
[4] = 24 hours post-injection, cited from earlier work
[5] = read-out: IC50 Values for Uncomplexed Compounds, NCI-H69 (first value)
[6] = read-out: IC50 Values for Uncomplexed Compounds, NCI-H69 (second value)

Molecule | IC50 (SSTRs, NCI-H69 membranes; [5]) [nM] | IC50 (SSTRs, NCI-H69 membranes; [6]) [nM] | TUMOR (AR42J tumor xenografts) [%ID/g] | T:B (AR42J tumor xenografts) | T:M (AR42J tumor xenografts) | also measured
C[C@@H](O)[C@@H]1NC(=O)[C@H](CCCCN)NC(=O)[C@@H](Cc2c[nH]c3ccccc23)NC(=O)[C@H](Cc2ccc(O)cc2)NC(=O)[C@H](CCSCC(=O)NC[C@H](N)C(=O)N[C@@H](CCCCN)C(=O)N[C@@H](CS)C(=O)N[C@H](CO)[C@@H](C)O)N(C)C(=O)[C@H](Cc2ccccc2)NC1=O [cyclo-Tyr-D-Trp-Lys-Thr-Phe-(N—CH3)Hcy(CH2 CO-β-Dap-Lys-Cys-Thr(ol))] | 0.346 | 234 | 10.2 | 48 | 104 | –
C[C@@H](O)[C@@H]1NC(=O)[C@H](CCCCN)NC(=O)[C@@H](Cc2c[nH]c3ccccc23)NC(=O)[C@H](Cc2ccc(O)cc2)NC(=O)[C@H](CCSCC(=O)NC[C@H](N)C(=O)N[C@@H](CCCN)C(=O)N[C@@H](CS)C(=O)N[C@H](CO)[C@@H](C)O)N(C)C(=O)[C@H](Cc2ccccc2)NC1=O [cyclo-Tyr-D-Trp-Lys-Thr-Phe-(N—CH3)Hcy(CH2 CO-β-Dap-Orn-Cys-Thr(ol))] | 0.505 | 744 | 10.3 | 24 | 96 | –
C[C@@H](O)[C@@H]1NC(=O)[C@H](CCCCN)NC(=O)[C@@H](Cc2c[nH]c3ccccc23)NC(=O)[C@H](Cc2ccc(O)cc2)NC(=O)[C@H](CCSCC(=O)NC[C@H](N)C(=O)N[C@@H](Cc2ccc(N)cc2)C(=O)N[C@@H](CS)C(=O)N[C@H](CO)[C@@H](C)O)N(C)C(=O)[C@H](Cc2ccccc2)NC1=O [cyclo-Tyr-D-Trp-Lys-Thr-Phe-(N—CH3)Hcy(CH2 CO-β-Dap-Phe(4-NH2)-Cys-Thr(ol))] | 0.501 | < 0.001 | 31.8 | 81 | 188 | –
C[C@@H](O)[C@@H]1NC(=O)[C@H](CCCCN)NC(=O)[C@@H](Cc2c[nH]c3ccccc23)NC(=O)[C@H](Cc2ccc(O)cc2)NC(=O)[C@H](CCSCC(=O)NC[C@H](N)C(=O)N[C@@H](CO)C(=O)N[C@@H](CS)C(=O)N[C@H](CO)[C@@H](C)O)N(C)C(=O)[C@H](Cc2ccccc2)NC1=O [cyclo-Tyr-D-Trp-Lys-Thr-Phe-(N—CH3)Hcy(CH2 CO-β-Dap-Ser-Cys-Thr(ol))] | 1.57 | < 0.001 | 12.6 | 31 | 144 | –
CC(O)[C@H](NC(=O)[C@H](CS)NC(=O)[C@H](Cc1ccc(N)cc1)NC(=O)[C@@H](N)CNC(=O)CSCC[C@H]1C(=O)N[C@@H](Cc2ccc(O)cc2)C(=O)N[C@H](Cc2c[nH]c3ccccc23)C(=O)N[C@@H](CCCCN)C(=O)N[C@@H](C(C)O)C(=O)N[C@@H](Cc2ccccc2)C(=O)N1C)C(=O)N[C@@H](CO)C(=O)O (stereo partly drawn) [cyclo-Tyr-D-Trp-Lys-Thr-Phe-(N—CH3)Hcy(CH2CO-β-Dap-Phe(4—NH2)-Cys-Thr-Ser)] (I: cyclo(F[NMehCys]Y[dW]K[Thr(3ξ)]) / II: H-[Dap][Phe(4-NH2)]C[Thr(3ξ)]S-OH; linker I:2-II:1 via X1) | 0.201 | 8.91 | 24.7 | 29 | 127 | IC50 [1]: 0.433 nM; tissue uptake dose at 1.5 h ([2]; gastrointestinal tract, read-out: GI): 8 %ID; tissue uptake at 1.5 h ([2]; kidneys): 4.8 %ID/g; tissue uptake dose at 1.5 h ([2]; spleen, read-out: Spleen): 0.21 %ID; dose excreted at 1.5 h ([2]; urine): 59%
C[C@@H](O)[C@@H]1NC(=O)[C@H](CCCCN)NC(=O)[C@@H](Cc2c[nH]c3ccccc23)NC(=O)[C@H](Cc2ccc(O)cc2)NC(=O)[C@H](CCSCC(=O)NC[C@H](N)C(=O)N[C@@H](CCN)C(=O)N[C@@H](CS)C(=O)NC(CO)CO)N(C)C(=O)[C@H](Cc2ccccc2)NC1=O [cyclo-Tyr-D-Try-Lys-Thr-Phe-(N—CH3)Hcy(CH2 CO-β-Dap-Dab-Cys-Ser(ol))] | 1.08 | – | 10.8 | 30 | 89 | –
^90Y-DOTA-lanreotide | – | – | – | – | – | 90Y kidney doses [3]: 1.98-2.43 mGy/MBq; spleen doses [3]: 1.68-3.35 mGy/MBq
^111In-DOTA-lanreotide | – | – | – | – | – | retention in human liver [4]: about 3.2 % injected dose; retention in kidney ([4]; human): about 2.5 % injected dose; retention in spleen ([4]; human): about 1.2 % injected dose
